What was measured:
[1] = system: type I collagen; assay: Immunohistochemical staining of type I collagen in skin equivalent; type: cell-based, human
[2] = system: COL1A1; assay: Real-time PCR of COL1A1 gene expression in skin equivalent models; type: cell-based, human; conditions: 6 to 48 hours
[3] = system: MRTFA; assay: Real-time PCR of MRTFA gene expression in skin equivalent models; type: cell-based, human; conditions: 10 μM, 6 to 48 hours; tensional homeostatic skin equivalent model (confirmed only in this model)
[4] = system: HAS3; assay: Real-time PCR of HAS3 gene expression in skin equivalent models; conditions: 10 μM
[5] = system: αSMA; assay: Immunohistochemical staining of αSMA in skin equivalent models; type: cell-based, human; conditions: 10 nM, 6 to 48 hours; tensional homeostatic model; to levels approximately equivalent to tension-released model
[6] = system: COL1A2; assay: Real-time PCR of COL1A2 gene expression in skin equivalent models; type: cell-based, human; conditions: 10 nM, 6 to 48 hours; tensional homeostatic model; to the equivalent level in tension-released skin equivalent
[7] = system: FBN1; assay: Real-time PCR of FBN1 gene expression in skin equivalent models; type: cell-based, human; conditions: 10 nM, 6 to 48 hours; tensional homeostatic model; to the equivalent level in tension-released skin equivalent
[8] = system: Tensional homeostatic skin equivalent; assay: Fluorescent staining of actin cytoskeleton and cell membrane (tissue orientation); type: cell-based, human; conditions: 10 nM, to level approximately equivalent to tension-released model
[9] = system: ITGA2; assay: Immunohistochemical staining of ITGA2 in skin equivalent models; type: cell-based, human; conditions: 10 nM, 6 to 48 hours; tensional homeostatic model; to levels approximately equivalent to tension-released model
[10] = system: ELN; assay: Real-time PCR of ELN gene expression in skin equivalent models; type: cell-based, human; conditions: 10 nM, 6 to 48 hours; tensional homeostatic model; to the equivalent level in tension-released skin equivalent
[11] = system: MMP1; assay: Real-time PCR of MMP1 gene expression in skin equivalent models; type: cell-based, human; conditions: 10 nM, 6 to 48 hours; tensional homeostatic model; to the equivalent level in tension-released skin equivalent
[12] = system: MRTFA; assay: Image analysis of nuclear import rates of MRTFA; type: cell-based, human; conditions: 10 nM, 6 to 48 hours; image analysis of immunohistochemical staining
[13] = system: MRTFA; assay: Immunohistochemical staining of MRTFA in skin equivalent models; type: cell-based, human; conditions: 10 nM, 6 to 48 hours; tensional homeostatic model; to levels approximately equivalent to tension-released model

| SMILES | expression of type I collagen (collagen fiber formation) ([1]; 10 μM, Tensional homeostatic skin model, vs control group) | COL1A1 gene expression ([2]; 10 μM, Tensional homeostatic skin equivalent vs control group (confirmed only in this model)) | MRTFA gene expression [3] | HAS3 gene expression ([4]; 6 to 48 hours, each skin equivalent model, compared with all the control groups) | ratio of the HAS3 expression promotion ([4]; Tensional homeostatic skin equivalent compared with the other models) | expression level of αSMA [5] | gene expression of COL1A2 [6] | gene expression of FBN1 [7] | expression level of type I collagen (collagen fiber formation) ([1]; 10 nM, Tensional homeostatic skin equivalent, to level approximately equivalent to tension-released model) | orientations of the cytoskeletons, cell membranes, and nuclei in the tension direction [8] | expression level of ITGA2 [9] | gene expression of COL1A1 ([2]; 10 nM, tensional homeostatic model, to the equivalent level in tension-released skin equivalent) | gene expression of ELN [10] | gene expression of MMP1 [11] | nuclear import rates of MRTFA [12] | expression level of MRTFA [13] |
| --- | --- | --- | --- | --- | --- | --- | --- | --- | --- | --- | --- | --- | --- | --- | --- | --- |
| CC1=C(/C=C/C(C)=C/C=C/C(C)=C/C(=O)O)C(C)(C)CCC1 [ATRA, all-trans retinoic acid] | increased | significant promotion of gene expression | significant increase | significant promotion of gene expression | highest value |  |  |  |  |  |  |  |  |  |  |  |
| C[C@@H](N)[C@H]1CC[C@H](C(=O)Nc2ccncc2)CC1 [Y27632] |  |  |  |  |  | reduces the expression levels | significantly inhibited | significantly inhibited | reduced | reduced the orientations | reduces the expression levels | significantly inhibited | significantly inhibited | significantly increased | significantly reduced | reduces the expression levels |
